# According to ChEMBL document CHEMBL1156203, “Synthesis and evaluation of alkenyl indazoles as selective Aurora kinase inhibitors” (Bioorg Med Chem Lett, 2010):
# Experiments:
# Aurora kinase B = Aurora kinase B (Homo sapiens, UniProt Q96GD4); experiment: Inhibition of GST tagged recombinant Aurora B expressed in Hi-5 cells after 1 hr by TRF assay
# Aurora kinase A = biological target: T1, Aurora kinase A (Homo sapiens, UniProt O14965); experiment: Inhibition of hexahistidine tagged recombinant Aurora A expressed in Hi-5 cells assessed as ATP remaining after 2 hrs by bioluminescence
# T1 sequence (O14965 whole entry): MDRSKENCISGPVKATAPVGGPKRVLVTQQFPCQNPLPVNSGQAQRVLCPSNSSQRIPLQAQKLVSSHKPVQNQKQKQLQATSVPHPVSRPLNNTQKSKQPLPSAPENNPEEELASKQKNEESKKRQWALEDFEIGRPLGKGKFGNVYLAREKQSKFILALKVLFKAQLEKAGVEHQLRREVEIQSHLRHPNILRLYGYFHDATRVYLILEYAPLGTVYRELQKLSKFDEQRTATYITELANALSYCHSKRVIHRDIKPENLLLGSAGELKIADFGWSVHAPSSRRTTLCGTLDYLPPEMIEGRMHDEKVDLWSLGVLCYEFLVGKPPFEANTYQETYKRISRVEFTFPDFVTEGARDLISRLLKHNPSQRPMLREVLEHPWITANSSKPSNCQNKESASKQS
# [1] = Selectivity ratio of IC50 for recombinant Aurora A to IC50 for recombinant Aurora B
# Chain of Aurora kinase B (Q96GD4 whole entry): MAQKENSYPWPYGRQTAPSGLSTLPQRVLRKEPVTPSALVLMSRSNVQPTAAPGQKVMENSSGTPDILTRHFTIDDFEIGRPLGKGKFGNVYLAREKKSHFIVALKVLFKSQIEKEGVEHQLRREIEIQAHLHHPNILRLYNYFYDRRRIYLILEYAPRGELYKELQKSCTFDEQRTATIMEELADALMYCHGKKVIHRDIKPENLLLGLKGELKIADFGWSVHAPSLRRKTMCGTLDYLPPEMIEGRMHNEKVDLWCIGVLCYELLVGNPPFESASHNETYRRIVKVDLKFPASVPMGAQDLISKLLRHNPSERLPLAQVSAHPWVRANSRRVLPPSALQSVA
IC50 (Aurora kinase B),IC50 (Aurora kinase A),Ratio IC50 [1],SMILES
99 nM,1900 nM,19,Cc1c(NC(=O)Cc2cccs2)ccc2[nH]nc(/C=C/c3cccc(CN4CCN(C)CC4)c3)c12
,1700 nM,,O=C(Cc1ccccc1)Nc1ccc2[nH]nc(CCc3ccccc3)c2c1
62 nM,140 nM,2.3,CN1CCN(C(=O)Nc2cccc(/C=C/c3n[nH]c4cc(N5CCCC5)c(NS(C)(=O)=O)cc34)c2)CC1
31 nM,35 nM,1.1,O=S(=O)(Cc1ccccc1)Nc1ccc2[nH]nc(/C=C/c3ccccc3)c2c1
1640 nM,640 nM,,O=C(Cc1ccccc1)Nc1ccc2[nH]nc(C3CC3c3ccccc3)c2c1 (centres undefined)
81 nM,200 nM,2.5,Nc1cc2c(/C=C/c3ccccc3)n[nH]c2cc1N1CCCC1
26 nM,35 nM,1.3,CN1CCN(Cc2cccc(/C=C/c3n[nH]c4ccc(NC(=O)Cc5cccs5)cc34)c2)CC1
,19 nM,,Cc1cc2[nH]nc(/C=C/c3ccccc3)c2cc1NC(=O)Cc1ccccc1
46 nM,13 nM,0.28,Cc1cc2[nH]nc(/C=C/c3cccc(NC(=O)N4CCN(C)CC4)c3)c2cc1NC(=O)Cc1cccs1
180 nM,42 nM,0.23,COc1ccc(OC)c(CC(=O)Nc2cc3c(/C=C/c4ccccc4)n[nH]c3cc2C)c1
46 nM,160 nM,3.5,C(=C\c1n[nH]c2cc(N3CCCC3)c(-c3ccncc3)cc12)/c1ccccc1
47 nM,17 nM,,Cc1cc2[nH]nc(/C=C/c3ccccc3)c2cc1NC(=O)Cc1cccs1
110 nM,91 nM,0.8,O=C(Cc1cccs1)Nc1cc2c(/C=C/c3ccccc3)n[nH]c2cc1N1CCCC1
59 nM,280 nM,4.7,Cc1c(C#N)ccc2[nH]nc(/C=C/c3cccc(CN4CCN(C)CC4)c3)c12
,22 nM,,O=C(Cc1ccccc1)Nc1ccc2[nH]nc(/C=C/c3ccccc3)c2c1
110 nM,240 nM,2.2,O=[N+]([O-])c1cc2c(/C=C/c3ccccc3)n[nH]c2cc1N1CCCC1
110 nM,240 nM,,Cc1cc2[nH]nc(C#Cc3ccccc3)c2cc1NC(=O)Cc1cccs1
130 nM,620 nM,5,C(=C\c1n[nH]c2cc(N3CCCC3)c(NCc3ccccn3)cc12)/c1ccccc1
130 nM,79 nM,0.6,Cc1cc2[nH]nc(/C=C/c3cccc(CN4CCN(C)CC4)c3)c2cc1NC(=O)Cc1cccs1
31 nM,350 nM,11.3,Cc1cc(N)cc(-c2ccc3[nH]nc(/C=C/c4cccc(CN5CCN(C)CC5)c4)c3c2C)c1
810 nM,> 10000 nM,> 12,CN1CCN(c2cc3[nH]nc(/C=C/c4ccccc4)c3cc2NCc2ccccn2)CC1
